We go through 20 compounds from patent US7700577B2, “Carbohydrate based anti-bacterials” (Alchemia Limited, priority 2002, dated 2010).

Experiment [1] has as its system E. coli. Kind of experiment: MIC testing, broth microdilution (NCCLS), E. coli. In kind it is cell-based. The following applies: E. coli after 24 hours exposure. An excerpt: (§1) The broth microdilution format of the National Committee for Clinical Laboratory Standards (NCCLS) approved standard for susceptibility tests as outlined in M7-A4 “methods for dillution Antimicrobial susceptibility tests for bacteria that grow aerobically; approved standard—fifth edition”, January 2000 was utilized for minimum inhibitory concentration testing in Mueller-Hinton broth. The broth for Streptococcus pyogenes testing was supplemented with 2% laked horse blood. A positive result in initial testing was determined by complete inhibition of macroscopic bacterial growth at a concentration of 128 micrograms per mL after incubation for 16 to 24 hours at 37 degrees C. In the case of Micrococcus luteus, incubation was at 30 degrees C. […] Bacterial Types Are: • SA24 S. aureus after 24 hours exposure • SA48 S. aureus after 48 hours exposure • EC24 E. coli after 24 hours exposure

The subject of experiment [2] is S. aureus. Kind of experiment: MIC testing, broth microdilution (NCCLS), S. aureus. In kind it is cell-based, Staphylococcus aureus. The following applies: for SA24 (MIC): S. aureus after 24 hours exposure; for SA48 (MIC): S. aureus after 48 hours exposure.
From the text: as §1

With `O=C(Cc1cccc(C(F)(F)F)c1)NC1COC(CO)C(NC(=O)c2ccc(-c3ccccc3)cc2)C1OC1OC(CO)C(O)C(O)C1NC(=O)Cc1cccc(C(F)(F)F)c1` (centres unmarked) [compound 2], the “EC24 (MIC)” value in experiment [1] is listed as “− (− indicates an MIC of greater then 128 micrograms per mL)”. Further, in experiment [2], the “SA24 (MIC)” value is given as “+ (+ indicates an MIC value of less than 128 micrograms per mL)” and the “SA48 (MIC)” value is “+ (+ indicates an MIC value of less than 128 micrograms per mL)”.
For the compound `O=C(Nc1cccc(C(F)(F)F)c1)NC1C(OC2C(NC(=O)c3cccc(C(F)(F)F)c3)COC(CO)C2NC(=O)c2ccc(-c3ccccc3)cc2)OC(CO)C(O)C1O` (centres unmarked) [compound 5], the “EC24 (MIC)” value in experiment [1] was “− (− indicates an MIC of greater then 128 micrograms per mL)”. Also, in experiment [2], the “SA24 (MIC)” value is given as “+ (+ indicates an MIC value of less than 128 micrograms per mL)” and the “SA48 (MIC)” value was “+ (+ indicates an MIC value of less than 128 micrograms per mL)”.
For `O=C(Cc1ccc(C(F)(F)F)cc1)NC1COC(CO)C(NC(=O)c2ccc(-c3ccccc3)cc2)C1OC1OC(CO)C(O)C(O)C1NC(=O)Nc1cccc(C(F)(F)F)c1` (centres unmarked) [compound 7], in experiment [1], the “EC24 (MIC)” value was “− (− indicates an MIC of greater then 128 micrograms per mL)”. In experiment [2], the “SA24 (MIC)” value is given as “+ (+ indicates an MIC value of less than 128 micrograms per mL)” and the “SA48 (MIC)” value is “+ (+ indicates an MIC value of less than 128 micrograms per mL)”.
Consider `O=C(Nc1cccc(C(F)(F)F)c1)NC1C(OC2C(NC(=O)OCc3ccccc3)COC(CO)C2NC(=O)c2ccc(-c3ccccc3)cc2)OC(CO)C(O)C1O` (centres unmarked) [compound 8], for which the “EC24 (MIC)” value in experiment [1] is recorded as “− (− indicates an MIC of greater then 128 micrograms per mL)”. In experiment [2], the “SA24 (MIC)” value is recorded as “+ (+ indicates an MIC value of less than 128 micrograms per mL)” and the “SA48 (MIC)” value was “+ (+ indicates an MIC value of less than 128 micrograms per mL)”.
With `Cc1ccc(S(=O)(=O)NC2C(OC3C(NC(=N)Nc4cccc(C(F)(F)F)c4)COC(CO)C3NC(=O)c3ccc(-c4ccccc4)cc3)OC(CO)C(O)C2O)cc1` (centres unmarked) [compound 12], in experiment [1], the “EC24 (MIC)” value is “+ (+ indicates an MIC value of less than 128 micrograms per mL)”. Besides, in experiment [2], the “SA24 (MIC)” value was “+ (+ indicates an MIC value of less than 128 micrograms per mL)” and the “SA48 (MIC)” value is “+ (+ indicates an MIC value of less than 128 micrograms per mL)”.
In the case of `Cc1ccc(S(=O)(=O)NC2[C@H](O[C@@H]3C(NC(=N)Nc4cccc(C(F)(F)F)c4)COC(CO)[C@@H]3N)OC(CO)[C@@H](O)[C@@H]2O)cc1` (some centres unmarked) [compound 13], the “SA24 (MIC)” value in experiment [2] is on record as “+ (+ indicates an MIC value of less than 128 micrograms per mL)”.
Turning to `N=C(Nc1cccc(C(F)(F)F)c1)NC1[C@H](O[C@@H]2C(NC(=N)Nc3cccc(C(F)(F)F)c3)COC(CO)[C@@H]2NC(=O)c2ccc(-c3ccccc3)cc2)OC(CO)[C@@H](O)[C@@H]1O` (some centres unmarked) [compound 16], in experiment [1], the “EC24 (MIC)” value is recorded as “+ (+ indicates an MIC value of less than 128 micrograms per mL)”. In experiment [2], the “SA24 (MIC)” value was “+ (+ indicates an MIC value of less than 128 micrograms per mL)” and the “SA48 (MIC)” value is reported as “+ (+ indicates an MIC value of less than 128 micrograms per mL)”.
In the case of `O=C(N[C@H]1C(CO)OCC(NS(=O)(=O)c2cccc(C(F)(F)F)c2)[C@H]1O[C@@H]1OC(CO)[C@@H](O)[C@H](O)C1NS(=O)(=O)c1cccc(C(F)(F)F)c1)c1ccc(-c2ccccc2)cc1` (some centres unmarked) [compound 36], in experiment [2], the “SA24 (MIC)” value is “+ (+ indicates an MIC value of less than 128 micrograms per mL)” and the “SA48 (MIC)” value is on record as “+ (+ indicates an MIC value of less than 128 micrograms per mL)”.
As for `NC1[C@H](O[C@@H]2C(NC(=O)Nc3cccc(C(F)(F)F)c3)COC(CO)[C@@H]2NC(=O)c2ccc(-c3ccccc3)cc2)OC(CO)[C@@H](O)[C@@H]1O` (some centres unmarked) [compound 43], the “SA24 (MIC)” value in experiment [2] is recorded as “+ (+ indicates an MIC value of less than 128 micrograms per mL)”.
Consider `O=C(Nc1cccc(C(F)(F)F)c1)NC1COC(CO)[C@H](NC(=O)c2ccc(-c3ccccc3)cc2)[C@@H]1O[C@@H]1OC(CO)[C@@H](O)[C@H](O)C1NC(=O)OCc1ccccc1` (some centres unmarked) [compound 44], for which, in experiment [2], the “SA24 (MIC)” value is given as “+ (+ indicates an MIC value of less than 128 micrograms per mL)” and the “SA48 (MIC)” value is recorded as “+ (+ indicates an MIC value of less than 128 micrograms per mL)”.
Turning to `N[C@H]1C(CO)OCC(NC(=O)Nc2cccc(C(F)(F)F)c2)[C@H]1O[C@@H]1OC(CO)[C@@H](O)[C@H](O)C1NC(=O)OCc1ccccc1` (some centres unmarked) [compound 45], the “SA24 (MIC)” value in experiment [2] is “+ (+ indicates an MIC value of less than 128 micrograms per mL)”.
With `Cc1ccc(NC(=N)NC2[C@H](O[C@@H]3C(NC(=O)Nc4cccc(C(F)(F)F)c4)COC(CO)[C@@H]3N)OC(CO)[C@@H](O)[C@@H]2O)cc1` (some centres unmarked) [compound 47], the “SA24 (MIC)” value in experiment [2] is on record as “+ (+ indicates an MIC value of less than 128 micrograms per mL)”.
With `Cc1ccc(S(=O)(=O)NC2[C@H](O[C@@H]3C(NC(=O)Nc4cccc(C(F)(F)F)c4)COC(CO)[C@@H]3N)OC(CO)[C@@H](O)[C@@H]2O)cc1` (some centres unmarked) [compound 50], the “SA24 (MIC)” value in experiment [2] is “+ (+ indicates an MIC value of less than 128 micrograms per mL)”.
On to `CCCCCC(C)CCC(=O)N[C@H]1C(CO)OCC(NC(=O)Nc2cccc(C(F)(F)F)c2)[C@H]1O[C@@H]1OC(CO)[C@@H](O)[C@H](O)C1NC(=O)Nc1cccc(C(F)(F)F)c1` (some centres unmarked) [compound 55], for which, in experiment [2], the “SA24 (MIC)” value is listed as “+ (+ indicates an MIC value of less than 128 micrograms per mL)” and the “SA48 (MIC)” value is “+ (+ indicates an MIC value of less than 128 micrograms per mL)”.
Take `O=C(/C=C/c1ccc(Cl)cc1)N[C@H]1C(CO)OCC(NC(=O)Nc2cccc(C(F)(F)F)c2)[C@H]1O[C@@H]1OC(CO)[C@@H](O)[C@H](O)C1NC(=O)Nc1cccc(C(F)(F)F)c1` (some centres unmarked) [compound 58]: in experiment [2], the “SA24 (MIC)” value is reported as “+ (+ indicates an MIC value of less than 128 micrograms per mL)” and the “SA48 (MIC)” value is reported as “+ (+ indicates an MIC value of less than 128 micrograms per mL)”.
Regarding `CCCCCN(CCCCC)C1C(CO)OCC(NC(=O)Nc2cccc(C(F)(F)F)c2)C1OC1OC(CO)C(O)C(O)C1NC(=O)Nc1cccc(C(F)(F)F)c1` (centres unmarked) [compound 60], in experiment [2], the “SA24 (MIC)” value was “+ (+ indicates an MIC value of less than 128 micrograms per mL)” and the “SA48 (MIC)” value is “+ (+ indicates an MIC value of less than 128 micrograms per mL)”.
For `CCCCCCCCOc1ccc(C(=O)NC2C(CO)OCC(NC(=O)Nc3cccc(C(F)(F)F)c3)C2OC2OC(CO)C(O)C(O)C2NC(=O)Nc2cccc(C(F)(F)F)c2)cc1` (centres unmarked) [compound 64], in experiment [2], the “SA24 (MIC)” value is listed as “+ (+ indicates an MIC value of less than 128 micrograms per mL)” and the “SA48 (MIC)” value is given as “+ (+ indicates an MIC value of less than 128 micrograms per mL)”.
Consider `CCCCCCCCCCC(=O)NC1C(CO)OCC(NC(=O)Nc2cccc(C(F)(F)F)c2)C1OC1OC(CO)C(O)C(O)C1NC(=O)OCc1ccccc1` (centres unmarked) [compound 78], for which, in experiment [2], the “SA24 (MIC)” value is reported as “+ (+ indicates an MIC value of less than 128 micrograms per mL)”.
For the compound `CCCCCCCCCCC(=O)NC1C(CO)OCC(NC(=O)Nc2cccc(C(F)(F)F)c2)C1OC1OC(CO)C(O)C(O)C1NS(=O)(=O)c1ccc(C)cc1` (centres unmarked) [compound 79], the “SA24 (MIC)” value in experiment [2] is recorded as “+ (+ indicates an MIC value of less than 128 micrograms per mL)”.
As to `CCCCCCCCCCC(=O)NC1C(CO)OCC(NC(=O)NCCCC)C1OC1OC(CO)C(O)C(O)C1NS(=O)(=O)c1ccc(C)cc1` (centres unmarked) [compound 80], in experiment [2], the “SA24 (MIC)” value is on record as “+ (+ indicates an MIC value of less than 128 micrograms per mL)”.
